Experimental data from patent publication US20240043372A1, “SUBSTITUTED AROMATIC COMPOUNDS AND PHARMACEUTICAL COMPOSITIONS THEREOF” (PHARMACEUTIQUE INGENEW INC., priority 2020, published 2024).
“Also recorded” adds a separate entry of the source.

Key:
[1] = tested on: carboplatin-resistant PDX glioblastoma (GBM20-75); experiment: Avatar CAM assay, patient-derived xenograft glioblastoma; type: in vivo, human; settings: FIG. 3, PDX glioblastoma resistant to carboplatin
Description: (§1) In this example, representative compounds of the present disclosure were tested for their respective effect on tumors using a model of Avatar Chick Chorioallantoic Membrane (CAM) assay. CAM assays have been widely used to study angiogenesis and tumor invasion of colorectal, prostate and brain cancers, as well as for studying patient-derived xenograft for potential personalized medicine.
(§2) The present inventor has tested representative compounds from the present disclosure or a Positive Control (PCtrl: sodium 2-(2-hydroxy-3,5-dipentylphenyl)acetate) as per the following. Fertilized eggs from white leghorn chicken were used and incubated in an Ova-Easy egg incubator at 37° C. with 60% humidity. At day 3, eggs were cracked. At day 9, U87 (human glioblastoma) cell suspensions (1×10^6 cells), or Caki cells or patient-derived xenograph (glioblastoma fragment) were mixed (1:1) with growth factor reduced Matrigel™ in a total volume of 20 μl for cell lines and POX-patient fragments were placed directly on top of the CAM and were returned to the incubator. Intravenous injection at day 11 or topical administration (Day 11 to Day 16) with or without the compounds. At day 16, chick embryos were killed by decapitation. Tumours were removed and tumour volumes were calculated using the formula: (Dd^2/3).

[2] = tested on: PC-3 cells (human prostate cancer cells); experiment: PC-3 cell proliferation (MTT); type: cell-based; settings: 24 hours
Description: Antiproliferative activity of representative compounds on cancer cells was also undertaken by using PC-3 cells (human prostate cancer cells). PC-3 cells were cultured for 24 hours in 96-well plates with or without Compounds or Positive Control (PCtrl: sodium 2-(2-hydroxy-3,5-dipentylphenyl)acetate) or Setogepram CAS No.: 1002101-19-0 from MedChemExpress LLC, USA) at various concentrations. The last four hours of incubation, 50 μl of a freshly made solution of MTT at 2 mg/ml in PBS were added. Cells were harvested, 150 μl of DMSO were added to solubilize the formazan crystal formed and the plates were read the plate at 570 nm.

human glioblastoma U87 = experiment: Avatar CAM assay, U87 tumour; type: in vivo; settings: for Anticancer Activity U87: Avatar CAM, tumour volume at day 16, symbols X to XXXX not defined
Description: as §1, §2

[3] = tested on: human renal carcinoma Caki cells; experiment: Avatar CAM assay, Caki tumour; type: in vivo; settings: for Anticancer Activity Caki: Avatar CAM, tumour volume at day 16, symbols X to XXXX not defined; for anticancer activity relative to Sorafenib: FIG. 2, Caki cells in CAM Avatar model
Description: as §1, §2

[4] = tested on: PDX-fragments from IPF lungs; experiment: Avatar CAM model, PDX-IPF lung fragments (volume, Masson's trichrome); type: in vivo, human; settings: for collagen deposition in the PDX-IPF fragment: FIG. 5, Masson's trichrome staining
Description: Avatar CAM model was also used to determine the antifibrotic activity of the representative compounds. Briefly, fertilized eggs from white leghorn chicken were used and incubated in an Ova-Easy egg incubator at 37° C. with 60% humidity. At day 3, eggs were cracked. At day 9, PDX-fragments from IPF lungs were grafted on top of the CAM and were returned to the incubator. Treatment by intravenous injection of compounds was performed at day 11 and at day 16, chick embryos were killed by decapitation. IPF-PDX fragments were removed and volumes were calculated using the formula: (Dd^2/3). Fibrosis was determined by a Masson's trichrome staining.

[5] = tested on: human fibrosarcoma HT1080 cell; experiment: Avatar CAM assay, HT1080 tumour; type: in vivo; settings: tumour volume at day 16, symbols X to XXXX not defined

SMILES	inhibition at 12.5 µM [2]	inhibition at 25 µM [2]	inhibition at 50 µM [2]	inhibition at 100 µM [2]	inhibition at 200 µM [2]	further results
N.N.O=C([O-])C1(C(=O)[O-])CCC1.[Pt+2] [carboplatin, reference compound]	–	–	–	–	–	growth (volume) response of PDX glioblastoma to treatment [1]: effectively resistant
CCCCCc1cc(CCO)c(O)c(CCCCC)c1 [Representative Compound 2]	0%	63.6%	70%	72.2%	66.3%	Anticancer Activity U87 (human glioblastoma U87): XXX; Anticancer Activity Caki [3]: XXXX; anticancer activity relative to Sorafenib [3]: reach the anticancer activity of Sorafenib; growth (volume) response of PDX glioblastoma to treatment [1]: does not respond
CCCCCc1cc(CCCCC)c(O)c(CC(N)=O)c1 [Representative Compound 1]	0%	0%	0%	0%	0%	–
CCCCCc1cccc(CC(=O)O)c1 [Setogepram, reference compound]	–	–	–	–	–	inhibition at 62.5 µM [2]: 16.8%; inhibition at 125 µM [2]: 5.7%; inhibition at 250 µM [2]: 10.4%; inhibition at 500 µM [2]: 0%; inhibition at 1000 µM [2]: 0%; collagen deposition in the PDX-IPF fragment [4]: reduce collagen deposition; also recorded: reduced the collagen deposition
CCCCCc1cc(CCCCC)c(O)c(CC(=O)O)c1 [PCtrl, sodium 2-(2-hydroxy-3,5-dipentylphenyl)acetate, reference compound]	0%	0%	0%	0%	20%	–
CCCCCc1cccc(CCO)c1 [Representative Compound 4]	–	–	–	–	–	inhibition at 62.5 µM [2]: 26.1%; inhibition at 125 µM [2]: 30.3%; inhibition at 250 µM [2]: 74.2%; inhibition at 500 µM [2]: 72.9%; inhibition at 1000 µM [2]: 70.4%; Antifibrotic Activity PDX (IPF lungs) ([4]; Avatar CAM, reduction of volume growth of PDX-IPF fragments, symbols not defined): XXXX; volume of the PDX-IPF fragments ([4]; FIG. 4, intravenous injection at day 11, volume at day 16): reduces significantly the volume; collagen deposition in the PDX-IPF fragment [4]: reduce collagen deposition; Anticancer Activity HT1080 [5]: XXX
OCCc1cc(Cc2ccccc2)cc(Cc2ccccc2)c1 [Representative Compound 5]	1.7%	42.8%	70.6%	72.2%	53%	Anticancer Activity U87 (human glioblastoma U87): XXXX; anticancer activity relative to carboplatin (human glioblastoma U87; FIG. 1, U87 in CAM Avatar model): reached the anticancer activity of carboplatin; Anticancer Activity HT1080 [5]: XXX; Anticancer Activity Caki [3]: XXXX; anticancer activity relative to Sorafenib [3]: reach the anticancer activity of Sorafenib
CCCCCc1cc(CCO)c(N)c(CCCCC)c1 [Representative Compound 3]	0%	39.1%	67.4%	62.1%	65.8%	–
